Results from PubChem BioAssay AID248 (DTP/NCI, 2004).
Where “and” joins values, the source holds several entries; their conditions need not be identical. Equal values may be shown once. Inconclusive results and toxic doses are left out. No stated cut-off is given here; in the data, active means T/C of 150% or more; inactive means T/C below 125%.

System: L1210 leukemia ip in BDF1 mice, survival T/C
Assay: NCI In Vivo Anticancer Drug Screen. Data for tumor model L1210 Leukemia (intraperitoneal) in B6D2F1 (BDF1) mice
Conditions: endpoint: mean survival time, higher = longer survival
Summary of the method: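 In this screen, tumor-bearing mice given compound are compared to those given vehicle, and their survival values are reported as a treated-to-control quotient.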

[1] = dose: 100.0 mg/kg/injection, schedule: Q01DX009 (ip), vehicle: Klucel (hydroxypropylcellulose) (HPC)
[2] = dose: 200.0 mg/kg/injection, schedule: Q01DX009 (ip), vehicle: Klucel (hydroxypropylcellulose) (HPC)
[3] = dose: 400.0 mg/kg/injection, schedule: Q01DX009 (ip), vehicle: Klucel (hydroxypropylcellulose) (HPC)
[4] = dose: 100.0 mg/kg/injection, schedule: Q04DX003 (ip), vehicle: Klucel (hydroxypropylcellulose) (HPC)
[5] = dose: 200.0 mg/kg/injection, schedule: Q04DX003 (ip), vehicle: Klucel (hydroxypropylcellulose) (HPC)
[6] = dose: 400.0 mg/kg/injection, schedule: Q04DX003 (ip), vehicle: Klucel (hydroxypropylcellulose) (HPC)
[7] = dose: 100.0 mg/kg/injection, schedule: Q01DX001 (ip), vehicle: carboxymethylcellulose (CMC)
[8] = dose: 100.0 mg/kg/injection, schedule: Q04DX003 (ip), vehicle: saline
[9] = dose: 200.0 mg/kg/injection, schedule: Q04DX003 (ip), vehicle: saline
[10] = dose: 400.0 mg/kg/injection, schedule: Q04DX003 (ip), vehicle: saline
[11] = dose: 200.0 mg/kg/injection, schedule: Q01DX001 (ip), vehicle: carboxymethylcellulose (CMC)

Measured: T/C

CCOC(=O)c1cnc(SCc2ccccc2Cl)nc1N1CC1
inactive: dose: 12.5 mg/kg/injection, schedule: Q01DX001 (ip), vehicle: saline 100 % of control | dose: 12.5 mg/kg/injection, schedule: Q04DX003 (ip), vehicle: saline 100 % of control | dose: 25.0 mg/kg/injection, schedule: Q01DX001 (ip), vehicle: saline 98 % of control | dose: 25.0 mg/kg/injection, schedule: Q04DX003 (ip), vehicle: saline 101 % of control | dose: 28.05 mg/kg/injection, schedule: Q01DX009 (ip), vehicle: acetone 92 % of control | dose: 42.5 mg/kg/injection, schedule: Q01DX009 (ip), vehicle: acetone 112 % of control | dose: 50.0 mg/kg/injection, schedule: Q01DX001 (ip), vehicle: saline 98 % of control | dose: 50.0 mg/kg/injection, schedule: Q04DX003 (ip), vehicle: saline 98 % of control and 100 % of control and 113 % of control | dose: 63.75 mg/kg/injection, schedule: Q01DX009 (ip), vehicle: acetone 117 % of control | dose: 75.0 mg/kg/injection, schedule: Q04DX003 (ip), vehicle: saline 102 % of control and 117 % of control | dose: 110.0 mg/kg/injection, schedule: Q04DX003 (ip), vehicle: saline 104 % of control and 120 % of control | dose: 115.0 mg/kg/injection, schedule: Q04DX003 (ip), vehicle: saline 122 % of control | dose: 170.0 mg/kg/injection, schedule: Q04DX003 (ip), vehicle: saline 115 % of control

CN(C)C(=O)Nc1cccc2nsnc12
inactive: [1] 106 % of control | [2] 104 % of control | [3] 102 % of control

O=C(NCCCCCCNC(=O)Nc1cccc2ccccc12)Nc1cccc2ccccc12
inactive: [1] 97 % of control | [2] 103 % of control | [3] 92 % of control

Cc1nc(N)cc(Cl)n1
inactive: [4] 101 % of control | [5] 103 % of control | [6] 90 % of control

ClC1=C(Cl)C(Cl)(C2(Cl)C(Cl)=C(Cl)C(Cl)=C2Cl)C(Cl)=C1Cl
inactive: [1] 93 % of control | [2] 102 % of control | [3] 95 % of control

O=C1CC(c2c[nH]c3nccnc23)NN1 (stereo unspecified)
inactive: dose: 6.25 mg/kg/injection, schedule: Q01DX009 (ip), vehicle: water 100 % of control | dose: 12.5 mg/kg/injection, schedule: Q01DX009 (ip), vehicle: water 100 % of control | dose: 25.0 mg/kg/injection, schedule: Q01DX009 (ip), vehicle: water 99 % of control | dose: 50.0 mg/kg/injection, schedule: Q01DX009 (ip), vehicle: water 105 % of control | dose: 100.0 mg/kg/injection, schedule: Q01DX009 (ip), vehicle: water 94 % of control | dose: 200.0 mg/kg/injection, schedule: Q01DX009 (ip), vehicle: water 89 % of control

CN(C)C1c2ccccc2-c2ccc(N)cc21 (stereo unspecified)
inactive: [7] 94 % of control

CC(C)C(=O)Nc1ccc(Cl)c(Cl)c1
inactive: dose: 222.0 mg/kg/injection, schedule: Q01DX Z (ip), vehicle: methylcellulose (MC) 111 % of control | dose: 333.0 mg/kg/injection, schedule: Q01DX Z (ip), vehicle: methylcellulose (MC) 98 % of control | dose: 500.0 mg/kg/injection, schedule: Q01DX Z (ip), vehicle: methylcellulose (MC) 102 % of control

N#C/C(=N\N=Nc1ccccc1)c1ccccc1
inactive: dose: 1.5 mg/kg/injection, schedule: Q01DX009 (ip), vehicle: DMSO 90 % of control | dose: 6.0 mg/kg/injection, schedule: Q01DX009 (ip), vehicle: DMSO 92 % of control | dose: 12.5 mg/kg/injection, schedule: Q01DX009 (ip), vehicle: DMSO 98 % of control | dose: 12.5 mg/kg/injection, schedule: Q04DX003 (ip), vehicle: DMSO 98 % of control | dose: 25.0 mg/kg/injection, schedule: Q04DX003 (ip), vehicle: DMSO 98 % of control | dose: 50.0 mg/kg/injection, schedule: Q04DX003 (ip), vehicle: DMSO 102 % of control

CC(C)(C)C12OC1C(=O)C1(C(C)(C)C)OC1C2=O (stereo unspecified)
inactive: [1] 97 % of control | [2] 103 % of control | [3] 105 % of control

CCCC(=O)/C=C/c1ccc(C)cc1
inactive: [8] 96 % of control | [9] 112 % of control | [10] 96 % of control

CC1(C(N)=O)OCCO1
inactive: [8] 103 % of control | [9] 96 % of control | [10] 100 % of control

Cc1cccc(Nc2c(N)nc(N)nc2N)c1
inactive: dose: 25.0 mg/kg/injection, schedule: Q01DX009 (ip), vehicle: saline 105 % of control | dose: 50.0 mg/kg/injection, schedule: Q01DX009 (ip), vehicle: saline 120 % of control | [8] 104 % of control

CC(C)c1ccc(/C=C(\C(=O)O)c2cccc3ccccc23)cc1
inactive: [1] 101 % of control

O=C(CCCc1ccc(N(CCCl)CCCl)cc1)NCc1ccccc1
inactive: dose: 4.0 mg/kg/injection, schedule: Q12HX018 (ip), vehicle: other 112 % of control | dose: 6.0 mg/kg/injection, schedule: Q12HX018 (ip), vehicle: other 103 % of control | dose: 8.0 mg/kg/injection, schedule: Q12HX018 (ip), vehicle: other 108 % of control

CCOC(=O)N1Cc2cc3cc4c(cc3nc2C1)OCO4
inactive: [8] 94 % of control | [9] 94 % of control | [10] 96 % of control

O=c1[nH]cc(Cl)cc1Cl
inactive: [1] 94 % of control | [2] 94 % of control | [3] 108 % of control

CCCC(C)(CO)COC(N)=O (stereo unspecified)
inactive: dose: 100.0 mg/kg/injection, schedule: Q01DX001 (ip), vehicle: saline 105 % of control | dose: 200.0 mg/kg/injection, schedule: Q01DX001 (ip), vehicle: saline 103 % of control | dose: 400.0 mg/kg/injection, schedule: Q01DX001 (ip), vehicle: saline 111 % of control

O=C1NC2CCC1c1ccccc12 (stereo unspecified)
inactive: dose: 50.0 mg/kg/injection, schedule: Q01DX001 (ip), vehicle: carboxymethylcellulose (CMC) 110 % of control | [7] 105 % of control | [11] 108 % of control

O=c1cc(CCCCCc2ccccc2)[nH]c(=O)[nH]1
inactive: dose: 100.0 mg/kg/injection, schedule: Q01DX001 (ip), vehicle: Klucel (hydroxypropylcellulose) (HPC) 97 % of control | dose: 200.0 mg/kg/injection, schedule: Q01DX001 (ip), vehicle: Klucel (hydroxypropylcellulose) (HPC) 97 % of control | dose: 400.0 mg/kg/injection, schedule: Q01DX001 (ip), vehicle: Klucel (hydroxypropylcellulose) (HPC) 101 % of control

CCCCCCCCCCCC[N+](CCCCCCCCCCCC)=C1SCCS1
inactive: dose: 1.56 mg/kg/injection, schedule: Q04DX003 (ip), vehicle: carboxymethylcellulose (CMC) 96 % of control | dose: 3.13 mg/kg/injection, schedule: Q04DX003 (ip), vehicle: carboxymethylcellulose (CMC) 104 % of control | dose: 6.25 mg/kg/injection, schedule: Q04DX003 (ip), vehicle: carboxymethylcellulose (CMC) 110 % of control

N/N=C1\c2ccccc2-c2cc([N+](=O)[O-])ccc21
inactive: [7] 104 % of control | [11] 95 % of control

Nc1ncnc2c1nnn2CCCCC(N)C(=O)O (stereo unspecified)
inactive: [8] 111 % of control | [9] 106 % of control | [10] 95 % of control

S=c1[nH]c2nccnc2[nH]1
inactive: dose: 25.0 mg/kg/injection, schedule: Q01DX009 (ip), vehicle: saline with Tween-80 96 % of control | dose: 50.0 mg/kg/injection, schedule: Q01DX009 (ip), vehicle: saline with Tween-80 96 % of control | dose: 100.0 mg/kg/injection, schedule: Q01DX009 (ip), vehicle: saline with Tween-80 93 % of control | dose: 200.0 mg/kg/injection, schedule: Q01DX009 (ip), vehicle: saline with Tween-80 97 % of control | dose: 400.0 mg/kg/injection, schedule: Q01DX009 (ip), vehicle: saline with Tween-80 104 % of control

N#Cc1ccc(OCCCOc2ccc([N+](=O)[O-])cc2)cc1
inactive: [4] 106 % of control | [5] 100 % of control | [6] 103 % of control

CC12CCC3c4cc(N)c(O)cc4CCC3C1CCC2=O (stereo unspecified)
inactive: dose: 100.0 mg/kg/injection, schedule: Q04DX002 (ip), vehicle: Klucel (hydroxypropylcellulose) (HPC) 92 % of control | dose: 200.0 mg/kg/injection, schedule: Q04DX002 (ip), vehicle: Klucel (hydroxypropylcellulose) (HPC) 99 % of control | dose: 400.0 mg/kg/injection, schedule: Q04DX002 (ip), vehicle: Klucel (hydroxypropylcellulose) (HPC) 101 % of control
